Assay [1] addresses T1, NAD-dependent protein deacetylase sirtuin-2 (Homo sapiens) (UniProt Q8IXJ6).
T1 sequence (whole entry): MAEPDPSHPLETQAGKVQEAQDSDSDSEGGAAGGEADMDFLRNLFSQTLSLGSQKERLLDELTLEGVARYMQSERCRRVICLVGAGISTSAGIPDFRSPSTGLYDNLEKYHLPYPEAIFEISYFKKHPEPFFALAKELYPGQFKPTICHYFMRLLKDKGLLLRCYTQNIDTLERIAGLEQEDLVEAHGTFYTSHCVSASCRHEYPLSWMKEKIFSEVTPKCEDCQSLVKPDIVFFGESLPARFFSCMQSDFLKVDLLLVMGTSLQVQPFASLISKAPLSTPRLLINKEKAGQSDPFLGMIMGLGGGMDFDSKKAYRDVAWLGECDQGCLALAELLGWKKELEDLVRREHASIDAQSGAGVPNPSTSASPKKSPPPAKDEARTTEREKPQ
Briefly: Induction of recombinant human SIRT2 (50 to 356 residues) deacetylase activity measured after 6 hrs in presence of NAD+ by MALDI-TOF-MS analysis. Details: concentration or dose not given beside the values.

The target of a further assay is T2, Protein AF-9 (Homo sapiens, UniProt P42568).
T2 sequence (P42568 whole entry): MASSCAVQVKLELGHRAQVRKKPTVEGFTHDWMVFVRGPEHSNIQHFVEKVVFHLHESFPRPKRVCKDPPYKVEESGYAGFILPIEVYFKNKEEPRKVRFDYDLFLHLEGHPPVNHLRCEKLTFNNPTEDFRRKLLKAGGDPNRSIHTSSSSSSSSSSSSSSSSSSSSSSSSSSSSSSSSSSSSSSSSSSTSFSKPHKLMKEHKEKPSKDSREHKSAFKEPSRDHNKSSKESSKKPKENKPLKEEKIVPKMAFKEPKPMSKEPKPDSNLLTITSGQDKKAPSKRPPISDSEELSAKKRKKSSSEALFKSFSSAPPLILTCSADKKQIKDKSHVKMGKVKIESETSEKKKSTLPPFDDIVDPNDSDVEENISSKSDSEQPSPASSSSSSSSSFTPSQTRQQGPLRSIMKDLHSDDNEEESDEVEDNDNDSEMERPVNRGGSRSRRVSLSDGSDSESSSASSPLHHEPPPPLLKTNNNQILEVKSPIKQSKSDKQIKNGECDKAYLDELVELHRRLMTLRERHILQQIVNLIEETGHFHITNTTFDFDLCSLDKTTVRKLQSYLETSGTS
Briefly: Binding affinity to N-terminal His-tagged recombinant human AF9 YEATS domain (1 to 138 residues) expressed in Escherichia coli 2(DE3)pLysS cells assessed as dissociation constant by ITC assay. (In ITC the heat of successive injections is recorded.)

Assay [2] deals with T1, NAD-dependent protein deacetylase sirtuin-2 (Homo sapiens). Briefly: Induction of recombinant human SIRT2 (50 to 356 residues) deacetylase activity measured after 24 hrs in presence of NAD+ by MALDI-TOF-MS analysis.

The source of these data is ChEMBL document CHEMBL5390235, “Reading and erasing of histone crotonyllysine mimics by the AF9 YEATS domain and SIRT2 deacylase” (Bioorg Med Chem, 2023).

Activity calls are given as the source filed them. The rule behind the calls is not given here.

Usually Kd stands for the free concentration of one partner at which half of the binding sites on the other are occupied at equilibrium, for simple one-to-one binding.

With `C/C=C/C(=O)NCCCC[C@H](NC(=O)[C@H](CCCNC(=N)N)NC(=O)[C@H](C)NC(=O)[C@@H](NC(=O)[C@H](CCC(N)=O)NC(=O)[C@H](CCCCN)NC(=O)[C@@H](N)[C@@H](C)O)[C@@H](C)O)C(=O)N[C@@H](CO)C(=O)N[C@H](C(=O)NCC(=O)NCC(=O)N[C@@H](CCCCN)C(=O)N[C@@H](C)C(=O)O)[C@@H](C)O`, the Activity in assay [1] (filed as activator) stood at 60%. For the same molecule, the Kd on Protein AF-9 is 7.8 µM.
For `CC#CC(=O)NCCCC[C@H](NC(=O)[C@H](CCCNC(=N)N)NC(=O)[C@H](C)NC(=O)[C@@H](NC(=O)[C@H](CCC(N)=O)NC(=O)[C@H](CCCCN)NC(=O)[C@@H](N)[C@@H](C)O)[C@@H](C)O)C(=O)N[C@@H](CO)C(=O)N[C@H](C(=O)NCC(=O)NCC(=O)N[C@@H](CCCCN)C(=O)N[C@@H](C)C(=O)O)[C@@H](C)O`, the results for the Activity in assay [2] (filed as activator) and in assay [1] were 50% and 30%, respectively. At Protein AF-9, the Kd amounted to 20.5 µM.
With `C[C@H](NC(=O)[C@H](CCCCN)NC(=O)CNC(=O)CNC(=O)[C@@H](NC(=O)[C@H](CO)NC(=O)[C@H](CCCCNC(=O)/C=C/c1ccccc1)NC(=O)[C@H](CCCNC(=N)N)NC(=O)[C@H](C)NC(=O)[C@@H](NC(=O)[C@H](CCC(N)=O)NC(=O)[C@H](CCCCN)NC(=O)[C@@H](N)[C@@H](C)O)[C@@H](C)O)[C@@H](C)O)C(=O)O`, the outcome in assay [2] was inactive. Also, on Protein AF-9, the Kd worked out at 5.1 µM.
With `CC/C=C/C(=O)NCCCC[C@H](NC(=O)[C@H](CCCNC(=N)N)NC(=O)[C@H](C)NC(=O)[C@@H](NC(=O)[C@H](CCC(N)=O)NC(=O)[C@H](CCCCN)NC(=O)[C@@H](N)[C@@H](C)O)[C@@H](C)O)C(=O)N[C@@H](CO)C(=O)N[C@H](C(=O)NCC(=O)NCC(=O)N[C@@H](CCCCN)C(=O)N[C@@H](C)C(=O)O)[C@@H](C)O`, in assay [1] (filed as activator), the Activity was 75%. Also, the Kd at Protein AF-9 turned out to be 13.6 µM.
`C/C=C(\C)C(=O)NCCCC[C@H](NC(=O)[C@H](CCCNC(=N)N)NC(=O)[C@H](C)NC(=O)[C@@H](NC(=O)[C@H](CCC(N)=O)NC(=O)[C@H](CCCCN)NC(=O)[C@@H](N)[C@@H](C)O)[C@@H](C)O)C(=O)N[C@@H](CO)C(=O)N[C@H](C(=O)NCC(=O)NCC(=O)N[C@@H](CCCCN)C(=O)N[C@@H](C)C(=O)O)[C@@H](C)O`: in assay [1], the Activity is 39%. On Protein AF-9, the Kd was determined as 46.5 µM.
As to `C[C@H](NC(=O)[C@H](CCCCN)NC(=O)CNC(=O)CNC(=O)[C@@H](NC(=O)[C@H](CO)NC(=O)[C@H](CCCCNC(=O)/C=C/C(F)(F)F)NC(=O)[C@H](CCCNC(=N)N)NC(=O)[C@H](C)NC(=O)[C@@H](NC(=O)[C@H](CCC(N)=O)NC(=O)[C@H](CCCCN)NC(=O)[C@@H](N)[C@@H](C)O)[C@@H](C)O)[C@@H](C)O)C(=O)O`, the outcome in assay [2] was inactive. For the same molecule, the Kd on Protein AF-9 came out at 48.5 µM.
In the case of `C=CC(=O)NCCCC[C@H](NC(=O)[C@H](CCCNC(=N)N)NC(=O)[C@H](C)NC(=O)[C@@H](NC(=O)[C@H](CCC(N)=O)NC(=O)[C@H](CCCCN)NC(=O)[C@@H](N)[C@@H](C)O)[C@@H](C)O)C(=O)N[C@@H](CO)C(=O)N[C@H](C(=O)NCC(=O)NCC(=O)N[C@@H](CCCCN)C(=O)N[C@@H](C)C(=O)O)[C@@H](C)O`, the Activity in assay [1] (filed as activator) amounted to 55%. Further, on Protein AF-9, the Kd came to 13.7 µM.
With `CC(C)=CC(=O)NCCCC[C@H](NC(=O)[C@H](CCCNC(=N)N)NC(=O)[C@H](C)NC(=O)[C@@H](NC(=O)[C@H](CCC(N)=O)NC(=O)[C@H](CCCCN)NC(=O)[C@@H](N)[C@@H](C)O)[C@@H](C)O)C(=O)N[C@@H](CO)C(=O)N[C@H](C(=O)NCC(=O)NCC(=O)N[C@@H](CCCCN)C(=O)N[C@@H](C)C(=O)O)[C@@H](C)O`, the values for the Activity in assay [2] and in assay [1] were 12% and 2%, respectively. Further, the Kd on Protein AF-9 came out at 159 µM.
